Experimental findings from patent US10676437B2, “Fluorinated 4-(substituted amino)phenyl carbamate derivatives” (SciFluor Life Sciences, Inc., priority 2017, dated 2020) are described below.

What all share (format): cell-based
Assay [1] deals with KCNQ3/5 (Homo sapiens, UniProt O43525+Q9NR82). Nature of the assay: Automated patch clamp, activation of KCNQ3/5 channels. To be noted: for Selectivity KCNQ3/5 EC50 / KCNQ2/3 EC50: ratio of EC50 values. Here is the method:
(§1) Electrophysiological studies of the compounds were performed using the Nanion SyncroPatch automated patch clamp platform.
(§2) Kv7 channels were evaluated using a voltage protocol in which cells were voltage-clamped at a holding potential of −110 mV. Potassium currents were activated with a series of voltage steps from −110 mV to +50 mV in 10 mV intervals with 5.5 seconds between successive voltage steps. Each voltage step was 3 seconds in duration and immediately followed by a 1 second voltage step to −120 mV to generate an inward “tail” current to allow construction of activation (G-V) curves by plotting normalized peak tail current versus the potential of the activating voltage step. To obtain normalized values, peak current amplitudes for successive depolarizing pulses were normalized against the maximum tail current amplitude generated at +50 mV (Tatulian et al., Journal of Neuroscience 2001, 21 (15)).
(§3) Data was collected on the Syncropatch platform using PatchControl software (Nanion) and processed and analyzed using DataControl Software (Nanion). Normalized percent activation was calculated and activation curves were fit with a Boltzmann function to determine the midpoint voltage of activation (G-V midpoint) for both pre-compound and post-compound conditions for each of the 384-wells of a sealchip with Pipeline Pilot (Accelrys). The difference in G-V midpoint between pre-compound and post-compound conditions (Δ V0.5) was plotted as a function of concentration and concentration-response curves were fit with a three-parameter logistic equation {Y=Bottom+(Top−Bottom)/(1+10^(Log EC50−X))} for determination of the EC50 (Graphpad Prism).
(In general: Patch clamp records ionic current or voltage across a cell membrane.)

Assay [2] addresses KCNQ4 (Homo sapiens, UniProt P56696). Nature of the assay: Automated patch clamp, activation of KCNQ4 channels. To be noted: for Selectivity KCNQ4 EC50 / KCNQ2/3 EC50: ratio of EC50 values. Here is the method: as §1, §2, §3
Assay [3] has as its target T1, human Kv7.2/7.3 channels (Homo sapiens, UniProt O43525+O43526).
T1 construct: expressed in transfected cells
Nature of the assay: Syncropatch automated patch clamp, activation of recombinantly expressed human Kv7.2/7.3 (KCNQ2/3) channels in CHO cells. To be noted: shift in G-V midpoint (Δ V0.5) vs concentration. The protocol:
The in vitro effects of a compound of the present application recombinantly expressed human Kv7.2/7.3 channels are assessed on Syncropatch high throughput electrophysiology platform.
CHO cells stably expressing human Kv7.2/7.3 channels were cultured in Ham's F-12 media (Hyclone, Cat # SH30022.02) supplemented with 10% Fetal Bovine Serum, 1×MEM non-essential amino acids, and 400 μg/ml G418 at 37° C. in 5% CO2. On the day of Syncropatch, the cells were washed once in DPBS (Hyclone, Cat # SH30028.03) for approximately 30 seconds. 1 ml of 1×0.015% Trypsin-EDTA GIBCO Cat #25300-054) was added and swirled around to cover the bottom of the flask, and allowed to sit on the cells for about 4 minutes (approximately 90% of the cells were lifted by light tapping of the flask). 10 ml of cold media (Ham's F-12 media (Hyclone, Cat # SH30022.02) supplemented with 10% Fetal Bovine Serum, 1×MEM non-essential amino acids, and 400 μg/ml G418) was added to inactivate Trypsin. The cells were then triturated until a single cell suspension was achieved, and the cell count was performed. The cells were then diluted to a concentration of 5×10^5/ml and placed into the “cell hotel” on the deck of the Syncropatch at 10° C. for about 1 hour to recover. 40 μL of the cell suspension was dispensed into each well of a 384-well Syncropatch chip by the onboard pipettor at the beginning of each Syncropatch assay.
The compounds to be tested were dissolved in DMSO to give 10 mM stock solutions. […]
Kv7 channels were evaluated using a voltage protocol in which cells were voltage-clamped at a holding potential of −110 mV. […]
Data was collected on the Syncropatch platform using PatchControl software (Nanion) and processed and analyzed using DataControl Software (Nanion). Normalized percent activation was calculated and activation curves were fit with a Boltzmann function to determine the midpoint voltage of activation (G-V midpoint) for both pre-compound and post-compound conditions for each of the 384-wells of a sealchip with Pipeline Pilot (Accelrys). […]

For `Cc1c(F)c(N2CCc3cc(F)ccc3C2)c(F)c(C)c1NC(=O)CC(C)(C)C` [Compound 1, N-(3,5-difluoro-4-(6-fluoro-3,4-dihydroisoquinolin-2 (1H)-yl)-2,6-dimethylphenyl)-3,3-dimethylbutanamide], the half-maximal effective concentration (EC50) – broadly, the concentration at which the effect is half-maximal – in assay [1] was 1000 to 10000 nM; in assay [2], no less than 10000 nM; in assay [3], 100 to 1000 nM. Besides, in assay [1], the “Selectivity KCNQ3/5 EC50 / KCNQ2/3 EC50” value is “III (III: 5 to <10)”. In assay [2], the “Selectivity KCNQ4 EC50 / KCNQ2/3 EC50” value is reported as “VI (VI: ≥100)”.

In the case of `Cc1c(F)c(NCc2ccc(F)cc2)c(F)c(C)c1NC(=O)CC(C)(C)C` [Compound 2, N-(3,5-difluoro-4-((4-fluorobenzyl)amino)-2,6-dimethylphenyl)-3,3-dimethylbutanamide], in assay [1], the EC50 lay in the range of 100 to 1000 nM and the “Selectivity KCNQ3/5 EC50 / KCNQ2/3 EC50” value is “IV (IV: 10 to <50)”. Also, in assay [2], the half-maximal effective concentration (EC50) fell in the range of 1000 to 10000 nM and the “Selectivity KCNQ4 EC50 / KCNQ2/3 EC50” value is reported as “V (V: 50 to <100)”. In addition, the EC50 in assay [3] was less than 100 nM.

Take `C#CCN(Cc1ccc(F)cc1)c1ccc(NC(=O)OCC)c(N)c1` [Control, reference compound]: in assay [1], the concentration for a half-maximal effect (EC50) is less than 100 nM and the “Selectivity KCNQ3/5 EC50 / KCNQ2/3 EC50” value is listed as “I (I: <1)”. In assay [2], the EC50 lay within 100 to 1000 nM and the “Selectivity KCNQ4 EC50 / KCNQ2/3 EC50” value is recorded as “IV (IV: 10 to <50)”. In assay [3], the EC50 was less than 100 nM.
